These results are taken from patent US20210181109A1 (FUJIFILM Corporation, priority 2018, published 2021).

Series [1] is described as follows: NAL depletion percent, HPLC-UV detection (281 nm). On the procedure: (§1) 1) To a 50 mL vessel, 12.6 mg (±0.1 mg) of NAL is weighed; to this, a 25 mL measuring pipet is used to add 20 mL of 100 mmol/L phosphate buffer (pH: 10.2); and the content is gently stirred using a test tube mixture to achieve dissolution (2 mmol/L NAL solution). 2) To a 500 mL vessel, 149.5 mL of this buffer is added using a 50 mL measuring pipet; to this, 0.5 mL of the above-described 2 mmol/L NAL solution is added; and the content is mixed by inversion to achieve 300-fold dilution (6.667 μmol/L).
(§2) The test substance undiluted solution is defined as an “undiluted solution”, and used. Incidentally, this “undiluted solution” may be appropriately diluted to, for example, 1/10, 1/100, or 1/1000, using an appropriate solvent, and the resultant solution may be used.
(§3) Subsequently, the solution having the maximum dissolution concentration is defined as an “undiluted solution”, and tested. Incidentally, this “undiluted solution” may be appropriately diluted to, for example, 1/10, 1/100, or 1/1000, using an appropriate solvent, and the resultant solution may be used.
(§4) The test substance is prepared at 1 mmol/L in any of solvents that are water, acetonitrile, acetone, and a 5 mass % dimethyl sulfoxide (DMSO)/acetonitrile solution and used as a test substance solution. As the solvent, a solvent in which the test substance dissolves at 1 mmol/L is used; when the test substance is soluble in a plurality of solvents, the solvent is selected in the following order of decreasing precedence: water, acetonitrile, acetone, and 5 mass % DMSO/acetonitrile.
(§5) Test substance solutions are prepared on a 96-well plate (U96 PP-0.5 ML NATURAL, Thermo Fisher Scientific Inc. (NUNC)) mainly using a 12-channel pipette, and a reagent is added in accordance with the following formula.
(§6) Nucleophilic reagent (NAC and NAL): 150 μL
(§7) Test substance solution: 50 μL
(§8) The plate is tightly sealed using a plate sealing (Resistant embossed seal, SHIMADZU GLC Ltd.), and stirred using a plate shaker (Titramax 100, Heidolph Instruments GmbH & CO. KG). The plate is subjected to spinning down using a centrifuge, and then to incubation at 25° C., for 24 hours, in a light-shielded state.
(§9) After the incubation for 24 hours, the plate sealing is removed; to each sample, 50 µL of the reaction stopping solution is added to stop the reaction.
(§10) The HPLC measurement conditions for the nucleophilic reagents are as follows.
(§11) From the average values (each, n=3) of peak areas of the post-reaction unreacted NAC or NAL and the blank-test (after performing the reaction step without addition of the test substances) NAC or NAL, the following formula is used to calculate the depletion percent of NAC or NAL.
(§12) NAL depletion percent (% depletion)=[1−(Average value of peak areas of post-reaction unreacted NAL/Average value of peak areas of blank-test (after performing the reaction step without addition of the test substances) NAL)]×100
(§13) The average value of peak areas of post-reaction unreacted NAL is the average value of areas obtained by measuring three times post-reaction unreacted NAL. The average value of peak areas of blank-test (after performing the reaction step without addition of the test substances) NAL is the average value of areas obtained by measuring three times blank-test (after performing the reaction step without addition of the test substances) NAL.
(§14) The reactions were each performed on a 96-well plate, and the number of samples of each case was set to n=3. In addition, as controls, reaction solutions including the solvent alone were prepared. The reaction solutions were prepared so as to have a NAC or NAL concentration of 5 μmon. To the reaction solutions after the lapse of 24 hours, a trifluoroacetic acid (TFA) aqueous solution was added such that the final concentration became 0.5% (v/v) TFA. Subsequently, HPLC was performed for measurements by two detection methods that were light absorption detection using a photodiode array (PDA) detector, and fluorescence detection using a fluorescence detector.

A short description of series [2]: NAL depletion percent, HPLC-fluorescence detection. On the procedure: as §1, §2, §3, §4, §5, §6, §7, §8, §9, §10, §11, §12, §13, §14
The conditions of series [3]: in vivo; cited from earlier work.
The nature of series [4]: NAC depletion percent, HPLC-fluorescence detection. The method, then: (§15) 1) To a 50 mL vessel, 11.6 mg (±0.1 mg) of NAC is weighed; to this, a 25 mL measuring pipet is used to add 20 mL of 100 mmol/L phosphate buffer (pH: 8.0); and the content is gently stirred using a test tube mixer to achieve dissolution (2 mmol/L). 2) To a 500 mL vessel, 149.5 mL of this buffer is added using a 50 mL measuring pipet; to this, 0.5 mL of the above-described 2 mmol/L NAC solution is added; and the content is mixed by inversion to achieve 300-fold dilution (6.667 μmon).
as §2, §3, §4, §5, §6, §7, §8, §9, §10, §11
(§16) NAC depletion percent (% depletion)=[1−(Average value of peak areas of post-reaction unreacted NAC/Average value of peak areas of blank-test (after performing the reaction step without addition of the test substances) NAC)]×100
(§17) The average value of peak areas of the post-reaction unreacted NAC is the average value of areas obtained by measuring three times post-reaction unreacted NAC. The average value of peak areas of blank-test (after performing the reaction step without addition of the test substances) NAC is the average value of areas obtained by measuring three times blank-test (after performing the reaction step without addition of the test substances) NAC.
as §14

The nature of series [5]: NAC depletion percent, HPLC-UV detection (281 nm). On the procedure:
as §15, §2, §3, §4, §5, §6, §7, §8, §9, §10, §11, §16, §17, §14

Series [6] can be described thus: Average score of NAC and NAL depletion and prediction of skin allergenicity, UV method. As to conditions: for Mean Depletion (%) (average score) / determination of skin allergenicity from average score: UV method; for determination of skin allergenicity from average score: criterion […]. The method, then: (§18) The average value (Average Score) of NAC and NAL depletion percents is calculated. In the resultant value, the second decimal place is rounded off.
(§19) Average value (Average Score) of NAC and NAL depletion percents=(NAC depletion percent+NAL depletion percent)/2
(§20) The depletion percent of at least one of NAC or NAL or the average score of the depletion percents of NAC and NAL is calculated, and whether or not the test substances are “allergenic substances” or “non-allergenic substances” is determined:
(§21) (1) in a case of performing evaluation based on the average value of the depletion percent of NAC and the depletion percent of NAL,
(§22) In the following Tables, S represents as being an allergenic substance and NS represents as being a non-allergenic substance.

A short description of series [7]: Average score of NAC and NAL depletion and prediction of skin allergenicity, fluorescence method. The conditions noted are these: for determination of skin allergenicity from average score: criterion […]. On the procedure:
as §18, §19, §20, §21, §22

Where [8] appears, read: Reference (UV method), non-allergenic substance.
Setting [9] is: Fluorescence method, non-allergenic substance.
Where [10] appears, read: Reference (UV method), skin allergenicity prediction.
Where [11] appears, read: Fluorescence method, skin allergenicity prediction.
The mark [12] stands for this setting: 1/1 (undiluted solution), UV method.
Setting [13] is: 1/10 diluted solution, UV method.
Setting [14] is: 1/1 (undiluted solution), fluorescence method, 25° C. 24 hours.
The mark [15] stands for this setting: 1/10 diluted solution, fluorescence method.
The mark [16] stands for this setting: 1/1 (undiluted solution), fluorescence method.
Setting [17] is: single substance, test substance solution 1 mmol/L, Reference (UV method).
[18] abbreviates: single substance, test substance solution 1 mmol/L, fluorescence method.

Take `CCCCO` [1-Butanol]: the entries for the “NAL depletion (%)” value in series [1] (setting [8]) and in series [2] (setting [9]) were 0.8% and 0.3%, respectively. Also, the “EC3 (%)” value in series [3] is “−”. The results for the “NAC depletion (%)” value in series [4] (setting [9]) and in series [5] (setting [8]) were 2.1% and 0.1%, respectively.
Regarding `C=O` [Formaldehyde], the “EC3 (%)” value in series [3] was 0.61%. Further, the Prediction result in series [6] and in series [7] was “S (key: S represents as being an allergenic substance; NS represents as being a non-allergenic substance)” each time.
Take `CC(O)CO` (centres unmarked) [Propylene glycol]: the “NAL depletion (%)” value in series [1] (setting [8]) was determined as 2.2%; in series [2] (setting [9]), 5.0%. The “NAC depletion (%)” value in series [4] (setting [9]) is 0.7%; in series [5] (setting [8]), 0.1%. Besides, the Prediction result in series [6] (setting [10]) and in series [7] (setting [11]) was “NS (NS represents as being a non-allergenic substance)” each time.
As for `CCCOC(=O)c1ccc(O)cc1` [Propylparaben], the figures for the “NAL depletion (%)” value in series [1] (setting [8]) and in series [2] (setting [9]) were 1.9% and 4.4%, respectively. The “EC3 (%)” value in series [3] was “−”. The “NAC depletion (%)” value in series [4] (setting [9]) is 0.5%; in series [5] (setting [8]), 0.1%.
With `O=C(O)c1ccc(O)c(O)c1` [Protocatechuic acid], the “NAL depletion (%)” value in series [1] (setting [12]) stood at 18.6%; in series [1] (setting [13]) it was 11.9%; in series [2] (setting [14]), 38.3%; in series [2] (setting [15]) it was 11.5%. The “NAC depletion (%)” value in series [4] (setting [14]) is reported as 58.1%; in series [4] (setting [15]) it was 27.3%; in series [5] (setting [12]), 60.8%; in series [5] (setting [13]) it was 30.1%. In addition, the “Mean Depletion (%) (average score)” value in series [6] (1/1 (undiluted solution)) was 39.7%; in series [6] (1/10 diluted solution), 21.0%; in series [7] (setting [16]), 48.2%; in series [7] (setting [15]) it was 19.4%. For the same compound, the “determination of skin allergenicity from average score” value in series [6] (1/1 (undiluted solution)), in series [6] (1/10 diluted solution), in series [7] (setting [16]) and in series [7] (setting [15]) was “having skin allergenicity” each time.
With `Oc1cccc(O)c1` [Resorcinol], the “NAL depletion (%)” value in series [1] (setting [17]) is reported as 2.2%; in series [2] (setting [18]), 1.6%. Also, the “NAC depletion (%)” value in series [4] (setting [18]) amounted to 0.8%; in series [5] (setting [17]), 4.0%. Besides, the Prediction result in series [6] (single substance, Reference (UV method), criterion average score […]) is given as “NS (NS represents as being a non-allergenic substance)”; in series [7] (single substance, fluorescence method, criterion average score […]), “NS (NS represents as being a non-allergenic substance)”. For the same compound, the Average score in series [6] (setting [17]) is on record as 3.1%; in series [7] (setting [18]), 1.2%.
On to `O=C(O)c1ccccc1O` [Salicylic acid], for which the “NAL depletion (%)” value is reported as 0.4% in series [1] (setting [8]) and 4.3% in series [2] (setting [9]). Also, the “NAC depletion (%)” value is 0.1% in series [4] (setting [9]) and 0.0% in series [5] (setting [8]). The Prediction result in series [6] (setting [10]) and in series [7] (setting [11]) was “NS (NS represents as being a non-allergenic substance)” throughout.
Take `Nc1ccc(S(N)(=O)=O)cc1` [Sulfanilamide]: the figures for the “NAL depletion (%)” value in series [1] (setting [8]) and in series [2] (setting [9]) were 1.4% and 3.6%, respectively. In addition, the “NAC depletion (%)” value in series [4] (setting [9]) was found to be 0.5%; in series [5] (setting [8]), 0.0%. For the same compound, the Prediction result in series [6] (setting [10]) and in series [7] (setting [11]) was “NS (NS represents as being a non-allergenic substance)” throughout.
With `Nc1ccc(S(=O)(=O)O)cc1` [Sulfanilic acid], the “NAL depletion (%)” value in series [1] (setting [8]) amounted to 0.4%; in series [2] (setting [9]), 0.1%. The “NAC depletion (%)” value in series [4] (setting [9]) stood at 0.0%; in series [5] (setting [8]), 0.5%. Besides, the Prediction result in series [6] (setting [10]) and in series [7] (setting [11]) was “NS (NS represents as being a non-allergenic substance)” in each case.
Take `COc1cc(C=O)ccc1O` [Vanillin]: the “NAL depletion (%)” value in series [1] (setting [8]) is reported as 1.9%; in series [2] (setting [9]) it was 0.0%. Besides, the “NAC depletion (%)” value in series [4] (setting [9]) is 2.0%; in series [5] (setting [8]), 1.5%. The Prediction result in series [6] (setting [10]) and in series [7] (setting [11]) was “NS (NS represents as being a non-allergenic substance)” each time.
Regarding `CC[C@H](CC[C@@H](C)[C@H]1CC[C@H]2[C@@H]3CC=C4C[C@@H](O)CC[C@]4(C)[C@H]3CC[C@]12C)C(C)C` [β-sitosterol, β-Sitosterol], the “NAL depletion (%)” value in series [1] (setting [12]) was 0.0%; in series [1] (setting [13]) it was 0.0%; in series [2] (setting [14]), 0.1%; in series [2] (setting [15]), 0.0%. Further, the “NAC depletion (%)” value in series [4] (setting [14]) turned out to be 0.0%; in series [4] (setting [15]) it was 0.6%; in series [5] (setting [12]) it was 0.0%; in series [5] (setting [13]), 3.9%. The “Mean Depletion (%) (average score)” value is on record as 0.0% in series [6] (1/1 (undiluted solution)), 1.9% in series [6] (1/10 diluted solution), 0.1% in series [7] (setting [16]) and 0.3% in series [7] (setting [15]). For the same compound, the “determination of skin allergenicity from average score” value in series [6] (1/1 (undiluted solution)), in series [6] (1/10 diluted solution), in series [7] (setting [16]) and in series [7] (setting [15]) was “not having skin allergenicity” in each case.
